Results reported in patent US20260242395A1, “AMINOHETEROARYL KINASE INHIBITORS” (ALLORION THERAPEUTICS INC, priority 2022, published 2026).

What was measured:
Format in all cases: biochemical
CDK1/CyclinB = molecular target: T1, CDK1/CyclinB (Homo sapiens, UniProt P06493); experiment: CDK1/CyclinB kinase inhibitory activity (Caliper mobility shift); conditions: enzyme 3 nM, ATP 20 μM, 28° C. 30 min; read-out: CDK1/Cyclin B1 IC50
T1 construct: purchased Millipore 14-450M
Experimental: CDK1/CyclinB kinase inhibitory activity (IC50): 5 μl of various dilutions of test compound in 1× kinase buffer (50 mM HEPES pH 7.5, 10 mM MgCl2, 2 mM DTT and 0.01% Brij-35) was mixed with 10 μL of CDK1/CyclinB (Millipore, 14-450M #, final concentration 3 nM in 1× Kinase buffer) in 384 plates and incubated at room temperature for 10 min. To initiate each reaction, 10 μL of peptide solution containing fluorescently-labeled-peptide 18(5-FAM-QSPKKG-CONH2) (GL, 114202 #, final concentration 3000 nM) and ATP (final concentration 20 μM) in 1× Kinase buffer was added to each of the wells containing test compound and CDK1/CyclinB mixture. The reaction is then allowed to proceed at 28° C. for 30 min and terminated by the addition of 25 μL stop buffer (100 mM HEPES pH 7.5, 50 mM EDTA, 0.2% Coating Reagent #3 (Perkin Elmer, 760050 #) and 0.015% Brij-35).
(§1) Following the kinase reaction, Caliper EZ reader II (Downstream voltages: −500V, Upstream voltages: −2250V, Base pressure −0.5 PSI, Screen pressure −1.2 PSI) was used to separate the phosphorylated (product) and the unphosphorylated (substrate) fluorescently-labeled peptide 18 based on their different mobility. Both substrate and product were measured and the ratio of these values were used to generate % conversion by Caliper EZ reader II. These conversion values were then transformed into % inhibition of kinase activity using the formula: % Inhibition=[(MA−X)/(MA−MI)]×100% where MA=conversion value of DMSO only controls, MI=conversion value of no enzyme controls and X=conversion value at any given compound dose. IC50 values were then calculated by plotting dose-response curves and then using the XLfit application in Excel software.

CDK2/CyclinE1 = molecular target: T2, CDK2/CyclinE1 (Homo sapiens, UniProt P24941); experiment: CDK2/CyclinE1 kinase inhibitory activity (Caliper mobility shift); conditions: enzyme 3 nM, ATP 77 μM, 28° C. 30 min; read-out: CDK2/Cyclin E1 IC50
T2 construct: purchased Carna 04-165
Experimental: CDK2/CyclinE1 kinase inhibitory activity (IC50): 5 μl of various dilutions of test compounds in 1×kinase buffer (50 mM HEPES pH 7.5, 10 mM MgCl2, 2 mM DTT and […] Brij-35) were mixed with 10 μL of CDK2/CyclinE1 (Carna, 04-165 #, final concentration 3 nM in 1×Kinase buffer) in 384 plates and incubated at room temperature for 10 min. To initiate each reaction, 10 μL of peptide solution containing fluorescently-labeled-peptide 18(5-FAM-QSPKKG-CONH2) (GL, 114202 #, final concentration 3000 nM) and ATP (final concentration 77 μM) in 1×Kinase buffer was added to each of the wells containing test compound and CDK2/CyclinE1 mixture. The reaction was then allowed to proceed at 28° C. for 30 min and terminated by the addition of 25 μL stop buffer (100 mM HEPES pH 7.5, 50 mM EDTA, 0.2% Coating Reagent #3 (Perkin Elmer, 760050 #) and 0.015% Brij-35).
as §1

CDK7/CyclinH/MAT1 = molecular target: T3, CDK7/CyclinH/MAT1 (Homo sapiens, UniProt P50613); experiment: CDK7/CyclinH/MAT1 kinase inhibitory activity (Caliper mobility shift); conditions: enzyme 12.5 nM, ATP 70 μM, 28° C. 30 min; read-out: CDK7/Cyclin H/MAT1 IC50
T3 construct: purchased Millipore 14-476M
T3 sequence (P50613 whole entry): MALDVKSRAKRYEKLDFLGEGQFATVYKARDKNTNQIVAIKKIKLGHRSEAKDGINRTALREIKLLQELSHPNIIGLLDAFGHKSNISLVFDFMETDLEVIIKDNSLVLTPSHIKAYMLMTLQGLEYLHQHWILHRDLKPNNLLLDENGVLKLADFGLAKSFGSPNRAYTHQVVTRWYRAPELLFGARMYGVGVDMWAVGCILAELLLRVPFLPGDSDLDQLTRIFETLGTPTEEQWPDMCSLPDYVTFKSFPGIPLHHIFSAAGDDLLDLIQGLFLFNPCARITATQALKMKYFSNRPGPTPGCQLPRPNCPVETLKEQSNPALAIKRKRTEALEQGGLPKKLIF
T3 sequence (P51946 whole entry partner): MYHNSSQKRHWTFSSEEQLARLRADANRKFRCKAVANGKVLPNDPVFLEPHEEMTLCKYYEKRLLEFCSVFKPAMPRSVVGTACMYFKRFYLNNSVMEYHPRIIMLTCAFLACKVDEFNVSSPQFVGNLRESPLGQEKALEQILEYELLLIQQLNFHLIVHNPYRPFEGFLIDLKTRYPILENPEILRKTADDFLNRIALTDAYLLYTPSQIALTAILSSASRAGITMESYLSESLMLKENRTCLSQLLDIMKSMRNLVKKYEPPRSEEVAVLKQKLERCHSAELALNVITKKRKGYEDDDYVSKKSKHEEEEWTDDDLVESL
T3 sequence (P51948 whole entry partner): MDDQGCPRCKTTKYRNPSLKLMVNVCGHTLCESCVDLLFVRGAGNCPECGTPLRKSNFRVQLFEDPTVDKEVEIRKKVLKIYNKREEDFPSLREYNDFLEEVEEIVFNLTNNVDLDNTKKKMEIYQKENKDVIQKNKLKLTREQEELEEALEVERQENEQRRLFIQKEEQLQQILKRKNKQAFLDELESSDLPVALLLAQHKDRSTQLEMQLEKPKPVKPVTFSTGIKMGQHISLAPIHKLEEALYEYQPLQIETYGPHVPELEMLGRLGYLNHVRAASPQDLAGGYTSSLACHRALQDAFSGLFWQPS
Experimental: CDK7/CyclinH/MAT1 kinase inhibitory activity (IC50): 5 μl of various dilutions of test compound in 1× kinase buffer (20 mM HEPES, pH 7.5, 10 mM MgCl2, 2 mM DTT and 0.01% Triton X-100) was mixed with 10 μL of CDK7/CyclinH/MAT1 (Millipore, 14-476M #, final concentration 12.5 nM in 1× Kinase buffer) in 384 plates and incubated at room temperature for 10 min. To initiate each reaction, 10 μL of peptide solution containing fluorescently-labeled-peptide CTD3 (5-FAM-[…], GL, SY346885 #, final concentration 3000 nM) and ATP (final concentration 70 μM) in 1× Kinase buffer was added to each of the wells containing test compound and CDK7/CyclinH/MAT1 mixture. The reaction is then allowed to proceed at 28° C. for 30 min and terminated by the addition of 25 μL stop buffer (100 mM HEPES pH 7.5, 50 mM EDTA, 0.2% Coating Reagent #3 (Perkin Elmer, 760050 #) and 0.015% Brij-35).
as §1, with “the phosphoiylated” for “the phosphorylated”, “peptide CTD3” for “peptide 18”

T1 sequence (P06493 whole entry): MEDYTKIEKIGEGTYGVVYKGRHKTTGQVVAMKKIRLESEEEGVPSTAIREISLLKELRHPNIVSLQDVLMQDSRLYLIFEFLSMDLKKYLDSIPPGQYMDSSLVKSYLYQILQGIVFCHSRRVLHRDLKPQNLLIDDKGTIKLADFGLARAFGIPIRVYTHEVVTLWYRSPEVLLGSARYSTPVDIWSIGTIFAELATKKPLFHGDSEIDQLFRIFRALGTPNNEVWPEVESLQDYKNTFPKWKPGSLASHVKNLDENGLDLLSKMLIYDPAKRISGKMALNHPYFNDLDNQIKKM
T1 sequence (P14635 whole entry partner): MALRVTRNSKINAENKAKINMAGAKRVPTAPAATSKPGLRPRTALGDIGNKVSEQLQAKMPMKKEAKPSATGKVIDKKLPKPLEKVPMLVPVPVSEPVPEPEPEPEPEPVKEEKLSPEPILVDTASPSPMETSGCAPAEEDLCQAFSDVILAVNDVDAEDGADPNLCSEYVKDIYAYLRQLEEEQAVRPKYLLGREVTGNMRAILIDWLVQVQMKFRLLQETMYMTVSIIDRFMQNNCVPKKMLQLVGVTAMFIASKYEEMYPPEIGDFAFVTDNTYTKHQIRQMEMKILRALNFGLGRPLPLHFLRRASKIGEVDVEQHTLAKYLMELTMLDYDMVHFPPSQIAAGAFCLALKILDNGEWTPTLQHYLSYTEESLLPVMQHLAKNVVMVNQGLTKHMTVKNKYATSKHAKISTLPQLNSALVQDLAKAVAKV

IC50 (CDK1/CyclinB) [nM] | IC50 (CDK2/CyclinE1) [nM] | IC50 (CDK7/CyclinH/MAT1) [nM] | Compound
100 to 1000 | 100 to 1000 | ≥ 1000 | Cc1nc2c(F)cc(-c3nc(N[C@@H]4CCOC[C@H]4O)ncc3Cl)cc2c(C)c1[C@@H](C)O (single isomer, unassigned) [Example 15a]
100 to 1000 | 100 to 1000 | 100 to 1000 | Cc1nc2c(F)cc(-c3nc(N[C@@H]4CCOC[C@H]4O)ncc3Cl)cc2c(C)c1[C@H](C)O (single isomer, unassigned) [Example 15b]
100 to 1000 | 100 to 1000 | 100 to 1000 | O[C@@H]1COCC[C@H]1Nc1ncc(Cl)c(-c2cc(F)c3ncc4c(c3c2)C2CCC(C4)N2)n1 (single isomer, unassigned) [Example 20b]
100 to 1000 | 10 to 100 | ≥ 1000 | CNC(C)c1cnc2c(F)cc(-c3nc(N[C@@H]4CCOC[C@H]4O)ncc3Cl)cc2c1 (single isomer, unassigned) [Example 32a]
100 to 1000 | 10 to 100 | 100 to 1000 | CC1Cc2cnc3c(F)cc(-c4nc(N[C@@H]5CCOC[C@H]5O)ncc4Cl)cc3c2CN1 (single isomer, unassigned) [Example 34a]
≥ 1000 | 100 to 1000 | ≥ 1000 | CC1Cc2cnc3c(F)cc(-c4nc(N[C@@H]5CCOC[C@H]5O)ncc4Cl)cc3c2CN1 (single isomer, unassigned) [Example 34b]
100 to 1000 | 100 to 1000 | ≥ 1000 | Cc1nc2c(F)cc(-c3nc(N[C@@H]4CCOC[C@H]4O)ncc3Cl)cc2c(Cl)c1C(C)O (single isomer, unassigned) [Example 35a]
≥ 1000 | 100 to 1000 | ≥ 1000 | Cc1nc2c(F)cc(-c3nc(N[C@@H]4CCOC[C@H]4O)ncc3Cl)cc2c(Cl)c1C(C)O (single isomer, unassigned) [Example 35b]
 | 100 to 1000 | 100 to 1000 | CC(O)c1cnc2c(F)cc(-c3nc(N[C@@H]4CCOC[C@H]4O)ncc3Cl)cc2c1Cl (single isomer, unassigned) [Example 40a]
100 to 1000 | 100 to 1000 | ≥ 1000 | CNC(C)c1cc2cc(-c3nc(N[C@@H]4CCOC[C@H]4O)ncc3Cl)cc(F)c2nc1C (single isomer, unassigned) [Example 45a]
≥ 1000 | ≥ 1000 | ≥ 1000 | CNC(C)c1cc2cc(-c3nc(N[C@@H]4CCOC[C@H]4O)ncc3Cl)cc(F)c2nc1C (single isomer, unassigned) [Example 45b]
100 to 1000 | 100 to 1000 | ≥ 1000 | Cc1nc2c(F)cc(-c3nc(N[C@@H]4CCOC[C@H]4O)ncc3Cl)cc2cc1C1CCCN1 (single isomer, unassigned) [Example 57a]
100 to 1000 | 100 to 1000 | ≥ 1000 | Cc1nc2c(F)cc(-c3nc(N[C@@H]4CCOC[C@H]4O)ncc3Cl)cc2cc1C(C)NC1CC1 (single isomer, unassigned) [Example 73b]
100 to 1000 | 100 to 1000 | 100 to 1000 | Cc1nc2c(F)cc(-c3nc(N[C@@H]4CCOC[C@H]4O)ncc3F)cc2c(C)c1C(C)O (single isomer, unassigned) [Example 81a]
100 to 1000 | 100 to 1000 | 100 to 1000 | Cc1nc2c(F)cc(-c3nc(N[C@@H]4CCOC[C@H]4O)ncc3F)cc2c(C)c1C(C)O (single isomer, unassigned) [Example 81b]
100 to 1000 | 100 to 1000 | 100 to 1000 | Cc1c(C(C)O)cnc2c(F)cc(-c3nc(N[C@@H]4CCOC[C@H]4O)ncc3Cl)cc12 (single isomer, unassigned) [Example 88a]
≥ 1000 | 100 to 1000 | ≥ 1000 | Cc1c(C(C)NC2CC2)cnc2c(F)cc(-c3nc(N[C@@H]4CCOC[C@H]4O)ncc3Cl)cc12 (single isomer, unassigned) [Example 91b]
100 to 1000 | 100 to 1000 | 100 to 1000 | CC1(C)NCc2c(cnc3c(F)cc(-c4nc(N[C@@H]5CCOC[C@H]5O)ncc4F)cc23)C1O (single isomer, unassigned) [Example 106b]
≥ 1000 | ≥ 1000 | ≥ 1000 | CC(C)(O)c1cnc2c(F)cc(-c3nc(N[C@@H]4CCOC[C@H]4O)ncc3Cl)cc2c1 [Example 1, (3S,4R)-4-((5-chloro-4-(8-fluoro-3-(2-hydroxypropan-2-yl)quinolin-6-yl)pyrimidin-2-yl)amino)tetrahydro-2H-pyran-3-ol]
≥ 1000 | 100 to 1000 | ≥ 1000 | Cc1nc2c(F)cc(-c3nc(N[C@@H]4CCOC[C@H]4O)ncc3Cl)cc2cc1C(C)(C)O [Example 5, (3S,4R)-4-((5-chloro-4-(8-fluoro-3-(2-hydroxypropan-2-yl)-2-methylquinolin-6-yl)pyrimidin-2-yl)amino)tetrahydro-2H-pyran-3-ol]
100 to 1000 | 100 to 1000 | ≥ 1000 | Cc1c(C(C)(C)O)cnc2c(F)cc(-c3nc(N[C@@H]4CCOC[C@H]4O)ncc3Cl)cc12 [Example 7, (3S,4R)-4-((5-chloro-4-(8-fluoro-3-(2-hydroxypropan-2-yl)-4-methylquinolin-6-yl)pyrimidin-2-yl)amino)tetrahydro-2H-pyran-3-ol]
10 to 100 | < 10 | 10 to 100 | O[C@@H]1COCC[C@H]1Nc1ncc(Cl)c(-c2cc(F)c3ncc4c(c3c2)CCNC4)n1 [Example 8, (3S,4R)-4-((5-chloro-4-(7-fluoro-1,2,3,4-tetrahydrobenzo[c][2,7]naphthyridin-9-yl)pyrimidin-2-yl)amino)tetrahydro-2H-pyran-3-ol]
100 to 1000 | 100 to 1000 | 100 to 1000 | O[C@@H]1COCC[C@H]1Nc1ncc(Cl)c(-c2cc(F)c3ncc4c(c3c2)CNCC4)n1 [Example 9, (3S,4R)-4-((5-chloro-4-(7-fluoro-1,2,3,4-tetrahydrobenzo[c][2,6]naphthyridin-9-yl)pyrimidin-2-yl)amino)tetrahydro-2H-pyran-3-ol]
≥ 1000 | ≥ 1000 | ≥ 1000 | CC(C)n1c(C(C)(C)O)nc2c(F)cc(-c3cc(N[C@@H]4CCOC[C@H]4O)ncc3Cl)cc21 [Example 12, (3S,4R)-4-((5-chloro-4-(4-fluoro-2-(2-hydroxypropan-2-yl)-1-isopropyl-1H-benzo[d]imidazol-6-yl)pyridin-2-yl)amino)tetrahydro-2H-pyran-3-ol]
